Source: US6962926B2, “Antagonist of MCP-1 function, and compositions and methods of use thereof” (Telik, Inc., priority 2001, dated 2005)

Tested on: Experimental Allergic Encephalomyelitis (EAE)
Assay: Experimental Allergic Encephalomyelitis (EAE) model of multiple sclerosis
Format: in vivo
Details: mice, MOG35-55-induced EAE, 30 mg/Kg twice daily for 35 days
Experimental: EAE was induced in two groups, each of 10 mice, by subcutaneous injection into the flank of 150 μg of the encephalitogenic peptide MOG35-55 ([…]; Auspep, Melbourne, Australia) emulsified in complete Freund's adjuvant (Difco, Detroit, U.S.A.), supplemented with 4 mg/mL of Mycobacterium tuberculosis, followed by intravenous injection of 350 ng of pertussis vaccine (List Biological Laboratories, Campbell, U.S.A.), with the pertussis vaccine injection repeated after 48 hours.
Compound 1 was dissolved in 3% aqueous Tween 80 at 4mg/mL and stored at 4° C. Starting on the day of immunization with MOG35-55, the mice were treated twice daily with 30 mg/Kg of compound 1 or an equal volume of water for the 35 day duration of the experiment.
The mice were monitored daily and neurological impairment was quantified on an arbitrary scale: 0, no detectable impairment; 1, flaccid tail; 2, hind limb weakness; 3, hind limb paralysis; 4, hind limb paralysis and ascending paralysis; 5, moribund or dead.
At the end of the experiment, the mice were killed and hematoxylin and eosin stained sections of brain and spinal cord were scored blindly by two independent investigators using the following scale: 0, no inflammation; 1, few very small cellular infiltrate in the perivascular areas and meninges; 2, mild cellular infiltrate; 3, moderate cellular infiltrate; 4, severe cellular infiltrate; 5, very large and extensive cellular infiltrate.

[1] = neurological impairment scale 0-5

Structure (SMILES): Cc1nn(C)c2nc(OCCN3CCCC3)c(C(=O)NC(=O)Nc3cccc(OC(C)C)c3)cc12.Cl [Compound 1, 1-{1,3-dimethyl-6-[2-(pyrrolidin-1-yl)ethoxy]-1H-pyrazolo[3,4-b]pyridine-5-carbonyl}-3-(3-isopropoxyphenyl)urea hydrochloride]
- Mean onset: 17.2 days
- EAE incidence (affected/total): 5/10
- Mean cumulative score [1]: 7.25
- Mean maximum score [1]: 1.4
